In US20200352976A1, “HYPOMETHYLATING AGENTS FOR USE IN TREATMENT OF CANCER” (Otsuka Pharmaceutical Co., Ltd, priority 2019, published 2020):

Assays:
[1] = test system: intermediate-risk or high-risk myelodysplastic syndromes (MDS) or chronic myelomonocytic leukemia (CMML); assay: Phase 1/2 trial (Phase 2 portion) with subgroup and landmark analyses: response, survival, transfusion independence; type: in vivo, human; conditions: for Median survival: all 102 patients
Description: A multicenter, open-label, randomized, phase 1/2 trial was performed with Compound I-1 to compare the activity and safety of two doses of Compound I-1 in hypomethylating agent treatment naïve or relapsed or refractory patients with intermediate-risk or high-risk myelodysplastic syndromes.
Patients enrolled in the study were aged 18 years or older, with a confirmed diagnosis of IPSS intermediate-1, intermediate-2, or high-risk myelodysplastic syndromes (MDS), or chronic myelomonocytic leukemia (CMML). Patients were either hypomethylating agent treatment-naïve or had relapsed or refractory disease after previous hypomethylating agent treatment as determined by the investigators' judgment (two or more complete full-dose cycles of a hypomethylating agent). The IPSS score in patients with relapsed or refractory myelodysplastic syndromes had been established at the time of their initial diagnosis. Eligible patients had Eastern Cooperative Oncology Group performance status of 0-2; adequate renal function (serum creatinine ≤1.5-times the upper limit of normal [ULN]) and adequate hepatic function (total bilirubin ≤2-times the ULN, and aspartate and alanine transaminases ≤2.5-times the ULN); had not undergone major surgery within 4 weeks or hemopoietic stem-cell transplantation within 8 weeks; or received chemotherapy within 2 weeks or nitrosoureas within 6 weeks of Compound I-1 treatment (hydroxycarbamide was allowed during treatment cycle 1). A patient with previous allogeneic stem-cell transplants was only eligible if the patient had no evidence of active graft-versus-host disease and had discontinued immunosuppressive therapy 2 weeks or more before receiving the study drug.
Patients received subcutaneous Compound I-1 at 60 or 90 mg/m^2 on days 1-5 of a 28-day treatment cycle. The intention was to provide the standard planned dose for four or more cycles; dose reduction could be instituted, as necessary, and the length of treatment cycles could be extended up to 42 days to allow for bone-marrow recovery in cases of severe cytopenia. Additional delay or dose reduction was allowed for recovery from toxicity in previous cycles based on the physician's judgment.
Hematological responses were monitored by analysis of blood and bone marrow aspiration. After the initial bone marrow aspirate screening at baseline, the results of peripheral blood assessments determined the frequency of subsequent bone marrow aspiration to confirm response or assess drug-related bone marrow toxicity. Complete peripheral blood counts and white blood cell differentials were measured at least once a week, including granulocyte numbers, platelet numbers, and hemoglobin concentration.
The primary endpoint was overall response, which was a composite of complete response (CR), partial response, marrow complete response (mCR), and hematological improvement. Overall response was assessed by local investigators. Secondary endpoints included the individual components of overall response, time to response, duration of response, overall survival, blood transfusion and platelet transfusion independence at weeks 8 and 16, and safety, including the incidence of adverse events, and all-cause early mortality at 30, 60, and 90 days. Exploratory analyses were done to examine the association between baseline characteristics and overall response.
Activity and safety endpoints were evaluated for all patients who received at least one dose of study drug, and no patients who received treatment were excluded from the analyses. […] Time to response and duration of response were summarized in days using descriptive statistics. Overall survival was analyzed using the Kaplan-Meier method, with survival time censored on the last date of contact if the patient was alive or lost to follow-up. Blood and platelet transfusion independence were summarized descriptively in the subset of patients who were transfusion-dependent at baseline. […]

[2] = test system: relapsed/refractory (r/r) AML; assay: Phase 2 study in relapsed/refractory AML: response, duration of response, survival; type: in vivo, human; conditions: for CR response rate, % / CRc (CR + CRp + CRi) response rate, % / CRi response rate, % / CRp response rate, % / CRc, %: r/r AML; for CRc, %: all regimens
Description: A Phase 2 study of Compound I-1 using different regimens and doses (randomized 5-day regimen cohorts of 60 mg/m^2/d vs 90 mg/m^2/d SC) and a cohort of 10-day regimen in the first 1-4 cycles at 60 mg/m^2/d followed by subsequent cycles of 5-day regimen) was conducted as described above. Response and duration of response were assessed using IWG 2003 criteria: Complete Response (CR), CR with incomplete platelet recovery (CRp), and CR with incomplete count recovery (CRi). CR+CRp+CRi was defined as composite CR (CRc). Overall survival (OS) was assessed using the Kaplan-Meier (KM) method. Response status for each dose/regimen cohort and the overall treated population were assessed with analyses of duration of response and long-term survival.

[3] = landmark analysis, at least 4 cycles (65 patients)
[4] = 5 Day regimen (60 and 90 mg/m^2), n = 50
[5] = 10 Day regimen (60 mg/m^2), n = 53

Nc1ncn([C@H]2CC(OP(=O)(O)OC[C@H]3O[C@@H](n4cnc5c(=O)[nH]c(N)nc54)CC3O)[C@@H](CO)O2)c(=O)n1 (stereo partly drawn) [Compound I-1]
12-month survival ([1]; 60 mg/m^2): 67% | 24-month survival ([1]; 60 mg/m^2): 39% | Duration of response ([1]; 60 mg/m^2): 295 days | Median overall survival ([1]; 60 mg/m^2): 611 days | Partial response ([1]; 60 mg/m^2 (n = 53)): 0 patients | 12-month survival ([1]; 90 mg/m^2): 60% | 24-month survival ([1]; 90 mg/m^2): 30% | Duration of response ([1]; 90 mg/m^2): 207 days | Median overall survival ([1]; 90 mg/m^2): 399 days | Partial response ([1]; 90 mg/m^2 (n = 49)): 0 patients | Median survival ([1]; 4 or more treatment cycles): 20.4 months | OS ([1]; 6 or more treatment cycles): 23.8 months | OS hazard ratio ([1]; 6 or more vs less than 6 treatment cycles): 0.41 | Partial response ([1]; All patients (n = 102)): 0 patients | Median OS ([1]; Baseline BM Blasts >5%): 12.3 months | Median OS ([1]; Baseline BM Blasts ≤5%): 22.7 months | Median OS ([1]; Baseline ECOG PS 0-1): 15.6 months | Median OS ([1]; Baseline ECOG PS 2): 8.7 months | Median OS ([1]; Baseline RBCs Transfusion Dependent): 11.7 months | Median OS ([1]; Baseline RBCs Transfusion Independent): 20.4 months | Partial response ([1]; Relapsed or refractory (n = 53)): 0 patients | Median OS ([1]; TN MDS/CMML patients): 23.4 months | Partial response ([1]; Treatment-naïve (n = 49)): 0 patients | Survival hazard ratio ([1]; at least 4 vs less than 4 treatment cycles): 0.55 | Median duration of complete, partial or marrow complete response ([1]; entire population): 203 days | Median overall survival ([1]; entire study population): 460 days | Median OS ([1]; landmark analysis, <4 cycles): 15.2 m | Objective response (OR) rate ([1]; landmark analysis, <4 cycles (26 patients)): 15% | Median OS ([1]; landmark analysis, <6 cycles): 13.6 m | Objective response (OR) rate ([1]; landmark analysis, <6 cycles (43 patients)): 26% | Median OS ([1]; landmark analysis, at least 4 cycles): 20.4 m | Objective response [1, 3]: 44 patients | Objective response (OR) rate [1, 3]: 68% | OS HR ([1]; landmark analysis, at least 4 vs <4 cycles): 0.78 | Median OS ([1]; landmark analysis, at least 6 cycles): 23.8 m | Objective response (OR) rate ([1]; landmark analysis, at least 6 cycles (44 patients)): 82% | OS HR ([1]; landmark analysis, at least 6 vs <6 cycles): 0.51 | OS HR ([1]; landmark, absence of objective response, at least 4 vs <4 cycles): 0.82 | OS HR ([1]; landmark, absence of objective response, at least 6 vs <6 cycles): 0.42 | Median survival ([1]; less than 4 treatment cycles): 8.7 months | OS ([1]; less than 6 treatment cycles): 9.1 months | Median time to response ([1]; patients with CR or marrow CR, entire study population): 85 days | Median OS ([1]; r/r MDS/CMML patients): 11.7 months | 2-year survival rate ([1]; relapsed or refractory cohort): 25% | Median overall survival ([1]; relapsed or refractory cohort): 352 days | Median overall survival ([1]; relapsed/refractory, 60 mg/m^2): 9.1 months | Median overall survival ([1]; relapsed/refractory, 90 mg/m^2): 12.3 months | 2-year survival rate ([1]; treatment-naïve cohort): 44% | Median overall survival ([1]; treatment-naïve cohort): 703 days | CR Rate ([2]; 5-day regimen): 8% | CRc rate ([2]; 5-day regimen): 16% | CR Rate ([2]; 10-day regimen): 19% | CRc rate ([2]; 10-day regimen): 30% | 2-year survival rate ([2]; CR): 57% | 2-year survival rate ([2]; CRc patients receiving HCT): 50% | 2-year survival rate ([2]; CRc patients who did not undergo HCT): 60% | 2-year survival rate ([2]; CRp/CRi): 50% | CRc ([2]; early relapse (<6 months from prior treatment)): 22% | CR Composite (CR + CRp + CRi) Duration of Response, median (range) ([2]; in vivo): 7.8 (0.5-30) Months | Complete Response (CR) Duration of Response, median (range) ([2]; in vivo): 7 (1-29.5) Months | Post treatment HCT in responders ([2]; in vivo): 58% | Achieved CRc ([2]; of 19 patients who had prior HCT): 5 patients | Median OS ([2]; patients who achieved CRc (either CR or CRp/CRi)): has not been reached | CRc ([2]; patients who relapsed after prior HCT (19 patients)): 26% | CRc ([2]; patients with poor risk cytogenetics): 19% | CR response rate, % [2, 4]: (6%) | CRc (CR + CRp + CRi) response rate, % [2, 4]: (16%) | CRi response rate, % [2, 4]: (8%) | CRp response rate, % [2, 4]: (2%) | CR response rate, % [2, 5]: (19%) | CRc (CR + CRp + CRi) response rate, % [2, 5]: (30%) | CRi response rate, % [2, 5]: (4%) | CRp response rate, % [2, 5]: (7%) | CRc, % ([2]; subgroup Age (y) <65 (N 63)): (19%) | CRc, % ([2]; subgroup Age (y) >65 (N 40)): (30%) | CRc, % ([2]; subgroup Cytogenetics Adverse (N 42)): (19%) | CRc, % ([2]; subgroup Cytogenetics Diploid (N 21)): (19%) | CRc, % ([2]; subgroup Cytogenetics Others (N 40)): (30%) | CRc, % ([2]; subgroup ECOG PS 0-1 (N 89)): (26%) | CRc, % ([2]; subgroup ECOG PS 2 (N 12)): (7%) | CRc, % ([2]; subgroup Prior HCT No (N 84)): (23%) | CRc, % ([2]; subgroup Prior HCT Yes (N 19)): (26%) | CRc, % ([2]; subgroup Response to Induction CR (N 55)): (15%) | CRc, % ([2]; subgroup Response to Induction Refractory (N 48)): (25%) | CRc, % ([2]; subgroup Time From Last Therapy <6 months (N 82)): (22%) | CRc, % ([2]; subgroup Time From Last Therapy >6 months (N 20)): (30%) | CRc ([2]; refractory patients): 31%
